Experiments:
MRSA = test: Spray test, log reduction of MRSA; assay type: cell-based; details: derived from 10% pyruvate and 3% H2O2; no growth in the broth, complete elimination assumed
Description: A representative list of the organisms tested include, but are not limited to, Bacillus subtilis, Bacillus atrophaeus, Bacillus thuringiensis, Staphylococcus aureus, Salmonella cholerasuis, Pseudomonas aeruginosa, Aspergillus niger, and Trichophyton mentagrophytes. The following exemplifies one procedure derived from disinfectant test methods found in guidelines of the Association of Official Analytical Chemists (AOAC) to meet “log reduction criteria” established by the U.S. Environmental Protection Agency (EPA) and U.S. FDA for certain applications: (1) A tube of the sample-disinfectant is placed into a waterbath for temperature control and allowed to equilibrate; (2) Once the tube has reached temperature, it is inoculated to achieve a concentration of approximately 10^6 CFU/mL; (3) At selected time points (generally five points are used including zero) aliquots are removed and placed into a neutralizer blank; (4) Dilutions of the neutralizer are made and selected dilutions plated onto agar; (5) Colonies are enumerated and log reductions are calculated.
In order to obtain observable significant reductions (on the order of 106) of surface bacteria, a high number of viable CFU/in^2 must be available for treatment on the surface to be disinfected. […]
The effectiveness of treatments was evaluated by enumeration of the surviving bacteria on the slide. […]

C. difficile = test: ASTM E2197-02 disk carrier test against C. difficile spores; assay type: cell-based; details: C. difficile spores with soil load on stainless steel disks, 10 minutes contact
Protocol: Pyruvic peracid (PPA) and Peroxy α-ketobutyric acid (POKBA) were tested against C. difficile using the ASTM E2197-02 testing method and the results are shown on FIG. 3. […] The method of testing these molecules against C. difficile was designed to evaluate the ability of liquid chemical germicides to inactivate vegetative bacteria, viruses, fungi, mycobacteria and bacterial spores in the presence of a soil load on disk carriers that represent environmental surfaces and medical devices.
This test method is a standard test promulgated by ASTM Committee E35 on Pesticides and Subcommittee E35.15 on Antimicrobial Agents. The stringency in the test is provided by the use of a soil load, the microtopography of the carrier surface and the small ratio of disinfectant to surface area (1:5) typical for many disinfectant applications. Thus the formulation under test is presented with a reasonable challenge while allowing for efficient recovery of the test organisms from the inoculated carriers with or without their exposure to the test formulation.
The metal disks used in the basic test are also compatible with a wide variety of germicidal actives and most surfaces in consumer based product manufacturing and health care facilities. The design of the metal discs makes it possible to place onto each precisely measured volume of the test organism (28 μL) as well as the test formulation (125 μL). […]

Row | Structure (SMILES) | log reduction of the MRSA control (MRSA) | activity against C. difficile (comparison, FIG. 3) (C. difficile)
1 | CC(=O)C(=O)OO [peroxy pyruvic acid] | approximately 6 logs | 
2 | CCC(=O)C(=O)OO [POKBA, Peroxy-alpha-Ketobutyric Acid] |  | significantly more active compared to PPA
